Drawing on PubChem BioAssay AID264 (DTP/NCI, 2004), this text covers T/C for 23 molecules.

The subject of the experiment is nude mice, LX-1 lung xenograft intrarenal, tumor weight T/C. Description: NCI In Vivo Anticancer Drug Screen. Data for tumor model Human Lung LX-1 Xenograft (intrarenal inoculation) in NU/NU Swiss (nude) mice. Conditions: endpoint: mean tumor weight change, higher = larger tumour. The procedure:
The antitumor activity of compounds was measured in mice bearing transplantable tumors. Survival or tumor size were measured and the results are expressed as the measurement made in the treated group (T) divided by the measurement made in the vehicle treated control group (C). The tumor model used in this assay is Human Lung LX-1 Xenograft (intrarenal inoculation) in NU/NU Swiss (nude) mice
Background: Xenograft models place foreign cells or tissue in a host animal.

The mark [1] stands for this setting: dose: 150.0 mg/kg/injection, schedule: Q04DX003 (sc), vehicle: saline with Tween-80.
Setting [2] is: dose: 300.0 mg/kg/injection, schedule: Q04DX003 (sc), vehicle: saline with Tween-80.
[3] abbreviates: dose: 600.0 mg/kg/injection, schedule: Q04DX003 (sc), vehicle: saline with Tween-80.
The mark [4] stands for this setting: dose: 100.0 mg/kg/injection, schedule: Q04DX003 (sc), vehicle: saline with Tween-80.
Where [5] appears, read: dose: 100.0 mg/kg/injection, schedule: Q01DX010 (sc), vehicle: saline with Tween-80.
The mark [6] stands for this setting: dose: 200.0 mg/kg/injection, schedule: Q01DX010 (sc), vehicle: saline with Tween-80.
[7] abbreviates: dose: 400.0 mg/kg/injection, schedule: Q01DX010 (sc), vehicle: saline with Tween-80.
Where [8] appears, read: dose: 12.5 mg/kg/injection, schedule: Q01DX010 (sc), vehicle: saline with Tween-80.
Setting [9] is: dose: 25.0 mg/kg/injection, schedule: Q01DX010 (sc), vehicle: saline with Tween-80.
Setting [10] is: dose: 50.0 mg/kg/injection, schedule: Q01DX010 (sc), vehicle: saline with Tween-80.
[11] abbreviates: dose: 300.0 mg/kg/injection, schedule: Q04DX003 (sc), vehicle: saline.
Setting [12] is: dose: 800.0 mg/kg/injection, schedule: Q01DX010 (sc), vehicle: Klucel (hydroxypropylcellulose) (HPC).
Setting [13] is: dose: 100.0 mg/kg/injection, schedule: Q04DX003 (sc), vehicle: saline.
The mark [14] stands for this setting: dose: 200.0 mg/kg/injection, schedule: Q04DX003 (sc), vehicle: saline.

Several values for one entry are separate records, joined by “and”; a condition that tells them apart may be missing. Equal values may be shown once. Inconclusive results are not listed.

As for `Cc1nc(N)nc(N)c1-c1ccc(Cl)c(Cl)c1`, the T/C is, setting by setting: (dose: 0.16 mg/kg/injection, schedule: Q01DX010 (sc), vehicle: saline) 85 % of control; (dose: 0.32 mg/kg/injection, schedule: Q01DX010 (sc), vehicle: saline) 111 % of control; (dose: 0.63 mg/kg/injection, schedule: Q01DX010 (sc), vehicle: saline) 115 % of control; (dose: 1.25 mg/kg/injection, schedule: Q01DX010 (sc), vehicle: saline) 106 % of control.
Consider `CC1(C)OC2C(COC(=O)c3ccc([N+](=O)[O-])cc3)OC(NC(=O)N(CCCl)N=O)C2O1` (centres undefined), for which the T/C (dose: 75.0 mg/kg/injection, schedule: Q04DX003 (sc), vehicle: saline with Tween-80) is 84 % of control; the T/C under setting [1] was 43 % of control; the T/C under setting [2] was 41 % of control; the T/C under setting [3] is 27 % of control.
`C=C1C(=O)OC2CC(C)C3C4OC4C(O)C3(C)C(O)C12` (centres undefined): the T/C is 97 % of control under setting [4] and 75 % of control (dose: 800.0 mg/kg/injection, schedule: Q04DX003 (sc), vehicle: saline with Tween-80).
For the molecule `CC1C=NNC1=O` (centres undefined), the T/C was 97 % of control under setting [5], 270 % of control under setting [6] and 82 % of control under setting [7].
`COc1cc(OC)c(NC(=O)ON2C(=O)c3ccccc3C2=O)cc1Cl`: the T/C was 93 % of control (dose: 25.0 mg/kg/injection, schedule: Q04DX003 (sc), vehicle: saline with Tween-80); 79 % of control (dose: 50.0 mg/kg/injection, schedule: Q04DX003 (sc), vehicle: saline with Tween-80); 68 % of control under setting [4]; 92 % of control (dose: 200.0 mg/kg/injection, schedule: Q04DX003 (sc), vehicle: saline with Tween-80).
Consider `c1ccc([C@H]2CN3CCSC3=N2)cc1`, for which the T/C is 103 % of control (dose: 30.0 mg/kg/injection, schedule: Q04DX003 (sc), vehicle: saline) and 121 % of control (dose: 60.0 mg/kg/injection, schedule: Q04DX003 (sc), vehicle: saline).
As to `CN=C(N)N/N=C(\C)c1ccc2c(c1)Cc1ccccc1-2`, the T/C was 152 % of control under setting [1], 117 % of control under setting [2] and 106 % of control under setting [3].
`CCOC(=O)C(CC(C)C)NC(=O)C(Cc1ccc(N(CCCl)CCCl)cc1)NC(C)=O` (centres undefined): the T/C is 51 % of control under setting [8], 37 % of control under setting [9] and 28 % of control under setting [10].
With `CN(C)CCOc1ccc2c(c1)C/C(=C/c1ncc([N+](=O)[O-])n1C)C2=O`, the T/C was 93 % of control under setting [2]; 82 % of control under setting [3]; 44 % of control (dose: 1200.0 mg/kg/injection, schedule: Q04DX003 (sc), vehicle: saline with Tween-80); 61 % of control (dose: 2400.0 mg/kg/injection, schedule: Q04DX003 (sc), vehicle: saline with Tween-80).
For `CCN1/C(=C/C(C)=C/c2sc3ccc4ccccc4c3[n+]2CC)Sc2ccc3ccccc3c21`, the T/C is 67 % of control (dose: 0.75 mg/kg/injection, schedule: Q04DX003 (sc), vehicle: Klucel (hydroxypropylcellulose) (HPC)); 112 % of control (dose: 1.5 mg/kg/injection, schedule: Q04DX003 (sc), vehicle: Klucel (hydroxypropylcellulose) (HPC)); 76 % of control (dose: 3.0 mg/kg/injection, schedule: Q04DX003 (sc), vehicle: Klucel (hydroxypropylcellulose) (HPC)); 96 % of control (dose: 6.0 mg/kg/injection, schedule: Q04DX003 (sc), vehicle: Klucel (hydroxypropylcellulose) (HPC)); 112 % of control (dose: 12.0 mg/kg/injection, schedule: Q04DX003 (sc), vehicle: Klucel (hydroxypropylcellulose) (HPC)); 81 % of control and 92 % of control (dose: 48.0 mg/kg/injection, schedule: Q04DX003 (sc), vehicle: Klucel (hydroxypropylcellulose) (HPC)).
Regarding `CN(CCN(C)C(=O)CCOS(C)(=O)=O)C(=O)CCOS(C)(=O)=O`, the T/C is, setting by setting: (dose: 150.0 mg/kg/injection, schedule: Q04DX003 (sc), vehicle: saline) 58 % of control; under setting [11], 27 % of control.
Turning to `CNNCc1ccc(C(=O)NC(C)C)cc1`, the T/C was -73 % of control (dose: 166.66 mg/kg/injection, schedule: Q04DX003 (ip), vehicle: saline); -64 % of control (dose: 333.33 mg/kg/injection, schedule: Q04DX003 (ip), vehicle: saline); -73 % of control (dose: 666.65 mg/kg/injection, schedule: Q04DX003 (ip), vehicle: saline).
For `c1ccc2sc(SSN3CC4CCC(CC4)C3)nc2c1`, the T/C was 81 % of control under setting [10], 76 % of control under setting [5], 48 % of control under setting [6] and 50 % of control under setting [7].
In the case of `CO[C@@H]1[C@H](O)CC[C@]2(CO2)[C@H]1[C@@]1(C)O[C@@H]1CC=C(C)C`, the T/C is, setting by setting: (dose: 150.0 mg/kg/injection, schedule: Q04DX003 (sc), vehicle: suspension in saline) 79 % of control; (dose: 300.0 mg/kg/injection, schedule: Q04DX003 (sc), vehicle: suspension in saline) 90 % of control; (dose: 600.0 mg/kg/injection, schedule: Q04DX003 (sc), vehicle: suspension in saline) 63 % of control; (dose: 1200.0 mg/kg/injection, schedule: Q04DX003 (sc), vehicle: suspension in saline) 63 % of control.
On to `O=[N+]([O-])/C=C\c1ccc2c(c1)OCO2`, for which the T/C is, setting by setting: (dose: 12.5 mg/kg/injection, schedule: Q01DX010 (sc), vehicle: Klucel (hydroxypropylcellulose) (HPC)) 71 % of control; (dose: 25.0 mg/kg/injection, schedule: Q01DX010 (sc), vehicle: Klucel (hydroxypropylcellulose) (HPC)) 94 % of control; under setting [12], 184 % of control.
For the molecule `CN(C)N=Nc1ccc(S(N)(=O)=O)cc1`, the T/C reads like this: (dose: 100.0 mg/kg/injection, schedule: Q01DX010 (sc), vehicle: Klucel (hydroxypropylcellulose) (HPC)) 1 % of control and 8 % of control; (dose: 200.0 mg/kg/injection, schedule: Q01DX010 (sc), vehicle: Klucel (hydroxypropylcellulose) (HPC)) 3 % of control and 9 % of control; under setting [12], 16 % of control.
As to `N=C1CCCS1`, the T/C (dose: 18.75 mg/kg/injection, schedule: Q04DX003 (sc), vehicle: saline) was 121 % of control; the T/C (dose: 37.5 mg/kg/injection, schedule: Q04DX003 (sc), vehicle: saline) was 87 % of control; the T/C (dose: 75.0 mg/kg/injection, schedule: Q04DX003 (sc), vehicle: saline) is 113 % of control.
On to `C[n+]1c2cc(N)ccc2cc2ccc(N)cc21`, for which the T/C (dose: 6.25 mg/kg/injection, schedule: Q01DX010 (sc), vehicle: saline) is 72 % of control.
On to `COC(=O)C(N)Cc1ccc(O)c(O)c1` (centres undefined), for which the T/C by setting is: under setting [11], 118 % of control; (dose: 600.0 mg/kg/injection, schedule: Q04DX003 (sc), vehicle: saline) 108 % of control; (dose: 1200.0 mg/kg/injection, schedule: Q04DX003 (sc), vehicle: saline) 106 % of control; (dose: 2400.0 mg/kg/injection, schedule: Q04DX003 (sc), vehicle: saline) 108 % of control.
In the case of `COc1ccc(C[C@H](N)C(=O)NC2C(CO)OC(n3cnc4c(N(C)C)ncnc43)C2O)cc1` (some centres undefined), the T/C under setting [13] was 109 % of control and the T/C under setting [14] was 74 % of control.
On to `O=c1cc(CCl)[nH]nc1CCl`, for which the T/C runs as follows: (dose: 6.25 mg/kg/injection, schedule: Q01DX010 (sc), vehicle: saline with Tween-80) 92 % of control; under setting [8], 55 % of control; under setting [9], 49 % of control; under setting [10], 106 % of control.
Take `O=c1[nH]c(=O)n(C2CC(O)C(CO)O2)cc1F` (centres undefined): the T/C was 77 % of control (dose: 50.0 mg/kg/injection, schedule: Q01DX010 (sc), vehicle: water) and 39 % of control (dose: 100.0 mg/kg/injection, schedule: Q01DX010 (sc), vehicle: water).
Take `Oc1ccc(O)cc1`: the T/C (dose: 25.0 mg/kg/injection, schedule: Q04DX003 (sc), vehicle: saline) was 102 % of control; the T/C (dose: 50.0 mg/kg/injection, schedule: Q04DX003 (sc), vehicle: saline) was 85 % of control and 98 % of control; the T/C under setting [13] was 92 % of control and 93 % of control; the T/C under setting [14] is 109 % of control.
